Source: patent US20090105283A1, “3-HYDROQUINAZOLIN-4-ONE DERIVATIVES FOR USE AS STEAROYL CoA DESATURASE INHIBITORS” (priority 2007, published 2009)

Biological target: T1, stearoyl-CoA desaturase (SCD) (Rattus norvegicus, UniProt P07308)
T1 construct: The microsomes were quickly thawed and added to assay buffer so that a concentration of 0.4 mg/ml was achieved; from tissue
T1 sequence (P07308 1-358): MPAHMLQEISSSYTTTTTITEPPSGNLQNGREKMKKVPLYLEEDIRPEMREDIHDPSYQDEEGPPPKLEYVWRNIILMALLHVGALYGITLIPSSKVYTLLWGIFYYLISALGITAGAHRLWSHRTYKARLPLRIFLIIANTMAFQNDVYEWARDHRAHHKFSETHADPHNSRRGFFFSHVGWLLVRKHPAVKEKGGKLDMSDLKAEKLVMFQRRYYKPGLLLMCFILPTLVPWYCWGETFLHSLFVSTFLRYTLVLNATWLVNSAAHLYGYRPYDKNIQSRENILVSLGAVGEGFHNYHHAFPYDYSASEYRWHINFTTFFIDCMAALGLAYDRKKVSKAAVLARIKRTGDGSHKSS
Assay: SCD assay with rat liver microsomes ([3H]stearoyl CoA, adapted from Talamo and Bloch)
Assay type: biochemical
Settings: [3H]stearoyl CoA substrate
Outline: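 Liver microsomes came from diet-induced male Sprague Dawley rats and were used at 0.2 mg/ml final. Assay buffer was Tris pH 7.2 with NADH, ATP, CoA, MgCl2 and 0.1% BSA. Compounds were preincubated 30 min, then reacted 45 min at room temperature with [3H]stearoyl-CoA; after TCA stop and Bio-Bead cleanup, supernatant radioactivity was counted by scintillation.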

[1] = Table 2 (Example 21, procedures of Example 20), rat liver microsomes
[2] = Table 1, rat liver microsomes 0.2 mg/ml assay final, 30 min preincubation, 45 min reaction, room temperature

SMILES	IC50 [1]	IC50 [2]
CC(=O)OCC(=O)Nc1ccc2ncn(CCCc3ccccc3)c(=O)c2c1 [compound 24, 2-oxo-2-(4-oxo-3-(3-phenylpropyl)-3,4-dihydroquinazolin-6-ylamino)ethyl acetate]	1300 nM	
O=C(NCCO)c1ccc2ncn(Cc3ccc(Cl)c(Cl)c3)c(=O)c2c1 [compound 81, 3-(3,4-dichlorobenzyl)-N-(2-hydroxyethyl)-4-oxo-3,4-dihydroquinazoline-6-carboxamide]	2700 nM	
O=C(CO)Nc1ccc2ncn(CCOc3cccc(Cl)c3)c(=O)c2c1 [compound 75, N-(3-(2-(3-chlorophenoxy)ethyl)-4-oxo-3,4-dihydroquinazolin-6-yl)-2-hydroxyacetamide]	1500 nM	
CC(C)OC(=O)Nc1ccc2ncn(Cc3ccc(Cl)c(Cl)c3)c(=O)c2c1 [IX, N-{3-[(3,4-dichlorophenyl)methyl]-4-oxo(3-hydroquinazolin-6-yl)}(methylethoxy)carboxamide]		14000 nM
O=C(COc1ccc(F)cc1)Nc1ccc2ncn(Cc3ccc(Cl)c(Cl)c3)c(=O)c2c1 [XVIII, N-{3-[(3,4-dichlorophenyl)methyl]-4-oxo(3-hydroquinazolin-6-yl)}-2-(4-fluorophenoxy)acetamide]		2100 nM
O=C(Nc1ccc2c(=O)n(Cc3ccc(Cl)c(F)c3)cnc2c1)OCc1ccccc1 [LXXXIII, N-{3-[(4-chloro-3-fluorophenyl)methyl]-4-oxo(3-hydroquinazolin-7-yl)}(phenylmethoxy)carboxamide]		210 nM
O=C(CO)Nc1ccc2ncn(Cc3ccc(F)c(F)c3)c(=O)c2c1 [compound 2, N-(3-(3,4-difluorobenzyl)-4-oxo-3,4-dihydroquinazolin-6-yl)-2-hydroxyacetamide]	2400 nM	
C[C@@H](c1ccc(Cl)c(C(F)(F)F)c1)n1cnc2ccc(NC(=O)CO)cc2c1=O [compound 102, (S)—N-(3-(1-(4-chloro-3-(trifluoromethyl)phenyl)ethyl)-4-oxo-3,4-dihydroquinazolin-6-yl)-2-hydroxyacetamide]	480 nM	
O=C(CSCc1ccccc1)Nc1ccc2ncn(Cc3ccc(Cl)c(Cl)c3)c(=O)c2c1 [LX, N-{3-[(3,4-dichlorophenyl)methyl]-4-oxo(3-hydroquinazolin-6-yl)}-2-(phenylmethylthio)acetamide]		6600 nM

Second part, the molecule after the results:

IC50 [1]	IC50 [2]	SMILES
	700 nM	COc1ccccc1COC(=O)Nc1ccc2c(=O)n(Cc3ccc(Cl)c(Cl)c3)cnc2c1 [LXI, N-{3-[(3,4-dichlorophenyl)methyl]-4-oxo(3-hydroquinazolin-7-yl)}[(2-methoxyphenyl)methoxy]carboxamide]
8000 nM		O=C(COc1ccccc1)Nc1ccc2ncn(Cc3ccc(Cl)cc3)c(=O)c2c1 [compound 5, N-(3-(4-chlorobenzyl)-4-oxo-3,4-dihydroquinazolin-6-yl)-2-phenoxyacetamide]
28000 nM		CC(=O)Nc1ccc2ncn(Cc3ccc(C(F)(F)F)cc3)c(=O)c2c1 [compound 19, N-(4-oxo-3-(4-(trifluoromethyl)benzyl)-3,4-dihydroquinazolin-6-yl)acetamide]
1700 nM		O=C(NCc1ccc(Cl)c(Cl)c1)c1ccc2c(=O)n(Cc3ccc(Cl)c(Cl)c3)cnc2c1 [compound 91, N,3-bis(3,4-dichlorobenzyl)-4-oxo-3,4-dihydroquinazoline-7-carboxamide]
3100 nM		O=C(CO)Nc1ccc2ncn(CCCOc3ccc(Cl)cc3)c(=O)c2c1 [compound 70, N-(3-(3-(4-chlorophenoxy)propyl)-4-oxo-3,4-dihydroquinazolin-6-yl)-2-hydroxyacetamide]
190 nM		O=C(CO)Nc1ccc2ncn(Cc3ccc(Cl)c(C(F)(F)F)c3)c(=O)c2c1 [compound 7, N-(3-(4-chloro-3-(trifluoromethyl)benzyl)-4-oxo-3,4-dihydroquinazolin-6-yl)-2-hydroxyacetamide]
9800 nM		CC(=O)OCC(=O)Nc1ccc2ncn(CCCOc3ccccc3F)c(=O)c2c1 [compound 47, 2-(3-(3-(2-fluorophenoxy)propyl)-4-oxo-3,4-dihydroquinazolin-6-ylamino)-2-oxoethyl acetate]
